Source: PubChem BioAssay AID1963848 (Molecular Pharmacology Branch, DTP, NCI, 2024)

Tested on: 379773-124-R-J2-PDC spheroid viability
Assay: Anticancer human tumor 379773-124-R-J2-PDC patient-derived endometrial carcinoma cell line growth inhibition [POLQ]
Settings: spheroids with HUVEC and MSC; for IC50: curve of first compound; for viability, T/C: stronger effect = lower value; active means viability on the fitted dose curve at most 10% of control; inactive means the rest
Procedure, shortened: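 Three-cell-type spheroids modelling solid tumor plus stroma served as the readout system; POL inhibitors were tested individually and in combination, concentration ranges set by clinical Cmax where known.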

[1] = second compound 0.0316 µM, first compound 0.00316 µM
[2] = second compound 0.0316 µM, first compound 0.01 µM
[3] = second compound 0.0316 µM, first compound 0.0316 µM
[4] = second compound 0.0316 µM, first compound 0.1 µM
[5] = second compound 0.0316 µM, first compound 0.316 µM
[6] = second compound 0.0316 µM, first compound 1 µM
[7] = second compound 0.1 µM, first compound 0.00316 µM
[8] = second compound 0.1 µM, first compound 0.01 µM
[9] = second compound 0.1 µM, first compound 0.0316 µM
[10] = second compound 0.1 µM, first compound 0.1 µM
[11] = second compound 0.1 µM, first compound 0.316 µM
[12] = second compound 0.1 µM, first compound 1 µM
[13] = second compound 0.316 µM, first compound 0.00316 µM
[14] = second compound 0.316 µM, first compound 0.01 µM
[15] = second compound 0.316 µM, first compound 0.0316 µM
[16] = second compound 0.316 µM, first compound 0.1 µM
[17] = second compound 0.316 µM, first compound 0.316 µM
[18] = second compound 0.316 µM, first compound 1 µM
[19] = second compound 1 µM, first compound 0.00316 µM
[20] = second compound 1 µM, first compound 0.01 µM
[21] = second compound 1 µM, first compound 0.0316 µM
[22] = second compound 1 µM, first compound 0.1 µM
[23] = second compound 1 µM, first compound 0.316 µM
[24] = second compound 1 µM, first compound 1 µM
[25] = second compound 3.16 µM, first compound 0.00316 µM
[26] = second compound 3.16 µM, first compound 0.01 µM
[27] = second compound 3.16 µM, first compound 0.0316 µM
[28] = second compound 3.16 µM, first compound 0.1 µM
[29] = second compound 3.16 µM, first compound 0.316 µM
[30] = second compound 3.16 µM, first compound 1 µM
[31] = second compound 10 µM, first compound 0.00316 µM
[32] = second compound 10 µM, first compound 0.01 µM
[33] = second compound 10 µM, first compound 0.0316 µM
[34] = second compound 10 µM, first compound 0.1 µM
[35] = second compound 10 µM, first compound 0.316 µM
[36] = second compound 10 µM, first compound 1 µM
[37] = second compound 0.0316 µM, first compound 3.16 µM
[38] = second compound 0.0316 µM, first compound 10 µM
[39] = second compound 0.1 µM, first compound 3.16 µM
[40] = second compound 0.1 µM, first compound 10 µM
[41] = second compound 0.316 µM, first compound 3.16 µM
[42] = second compound 0.316 µM, first compound 10 µM
[43] = second compound 1 µM, first compound 3.16 µM
[44] = second compound 1 µM, first compound 10 µM
[45] = second compound 3.16 µM, first compound 3.16 µM
[46] = second compound 3.16 µM, first compound 10 µM
[47] = second compound 10 µM, first compound 3.16 µM
[48] = second compound 10 µM, first compound 10 µM
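Further: spheroids exposed to drugs for seven days before readout.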
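Wherever viability, T/C is given: percent viability relative to DMSO vehicle control taken as 100%.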

C=CCn1c(=O)c2cnc(Nc3ccc(N4CCN(C)CC4)cc3)nc2n1-c1cccc(C(C)(C)O)n1 + Nc1ccc(C#CCN(C(=O)Cc2ncc(C(F)(F)F)cc2C(F)(F)F)c2ccc(F)cc2)nn1
active: viability, T/C [6] 2.92% | viability, T/C [12] 3.57% | viability, T/C [18] 3.12% | viability, T/C [24] 3.73% | viability, T/C [30] 3.02% | viability, T/C [36] 2.81%
436 nM: IC50 (second compound 0.316 µM)
inactive: viability, T/C [1] 90.6% | viability, T/C [2] 101% | viability, T/C [3] 93.7% | viability, T/C [4] 104% | viability, T/C [5] 70.3% | viability, T/C [7] 95.5% | viability, T/C [8] 99.2% | viability, T/C [9] 107% | viability, T/C [10] 111% | viability, T/C [11] 78.1% | viability, T/C [13] 95.7% | viability, T/C [14] 91.7% | viability, T/C [15] 97% | viability, T/C [16] 92.4% | viability, T/C [17] 68.1% | viability, T/C [19] 103% | viability, T/C [20] 103% | viability, T/C [21] 100% | viability, T/C [22] 97.5% | viability, T/C [23] 69.8% | viability, T/C [25] 113% | viability, T/C [26] 99.3% | viability, T/C [27] 96.1% | viability, T/C [28] 105% | viability, T/C [29] 80.9% | viability, T/C [31] 101% | viability, T/C [32] 88.8% | viability, T/C [33] 92.3% | viability, T/C [34] 88.6% | viability, T/C [35] 71.4%
447 nM: IC50 (second compound 0.0316 µM) | IC50 (second compound 1 µM)
451 nM: IC50 (second compound 10 µM)
499 nM: IC50 (second compound 3.16 µM)
488 nM: IC50 (second compound 0.1 µM)

CCc1c2c(nc3ccc(O)cc13)-c1cc3c(c(=O)n1C2)COC(=O)[C@]3(O)CC + Nc1ccc(C#CCN(C(=O)Cc2ncc(C(F)(F)F)cc2C(F)(F)F)c2ccc(F)cc2)nn1
3.52 nM: IC50 (second compound 0.1 µM)
inactive: viability, T/C [1] 45.5% | viability, T/C [2] 17.6% | viability, T/C [7] 53.6% | viability, T/C [8] 16.7% | viability, T/C [13] 48.6% | viability, T/C [14] 12.6% | viability, T/C [19] 47.8% | viability, T/C [20] 13.7% | viability, T/C [25] 47.9% | viability, T/C [26] 15.1% | viability, T/C [31] 41.9% | viability, T/C [32] 14.7%
< 3.16 nM: IC50 (second compound 0.0316 µM) | IC50 (second compound 0.316 µM) | IC50 (second compound 1 µM) | IC50 (second compound 3.16 µM) | IC50 (second compound 10 µM)
active: viability, T/C [3] 12.6% | viability, T/C [4] 4.69% | viability, T/C [5] 3.2% | viability, T/C [6] 1.03% | viability, T/C [9] 13.1% | viability, T/C [10] 4.92% | viability, T/C [11] 1.48% | viability, T/C [12] 0.65% | viability, T/C [15] 11.1% | viability, T/C [16] 4.23% | viability, T/C [17] 1.5% | viability, T/C [18] 0.7% | viability, T/C [21] 10.4% | viability, T/C [22] 5.54% | viability, T/C [23] 1.41% | viability, T/C [24] 3.04% | viability, T/C [27] 9.79% | viability, T/C [28] 3.28% | viability, T/C [29] 1.52% | viability, T/C [30] 0.83% | viability, T/C [33] 11.6% | viability, T/C [34] 4.49% | viability, T/C [35] 1.89% | viability, T/C [36] 0.9%

CNCc1ccc(-c2[nH]c3cc(F)cc4c3c2CCNC4=O)cc1 + Nc1ccc(C#CCN(C(=O)Cc2ncc(C(F)(F)F)cc2C(F)(F)F)c2ccc(F)cc2)nn1
inactive: viability, T/C [3] 92.7% | viability, T/C [4] 91.7% | viability, T/C [5] 91.2% | viability, T/C [6] 101% | viability, T/C [37] 99.8% | viability, T/C [38] 99.7% | viability, T/C [9] 84.4% | viability, T/C [10] 90.7% | viability, T/C [11] 87.5% | viability, T/C [12] 95.8% | viability, T/C [39] 101% | viability, T/C [40] 79.6% | viability, T/C [15] 101% | viability, T/C [16] 95.4% | viability, T/C [17] 85.9% | viability, T/C [18] 87.1% | viability, T/C [41] 93.8% | viability, T/C [42] 93.3% | viability, T/C [21] 90.4% | viability, T/C [22] 101% | viability, T/C [23] 91.2% | viability, T/C [24] 91.2% | viability, T/C [43] 92.9% | viability, T/C [44] 83.4% | viability, T/C [27] 88.2% | viability, T/C [28] 86% | viability, T/C [29] 84.8% | viability, T/C [30] 86% | viability, T/C [45] 96.3% | viability, T/C [46] 79.4% | viability, T/C [33] 102% | viability, T/C [34] 88.4% | viability, T/C [35] 85.3% | viability, T/C [36] 87.1% | viability, T/C [47] 96.6% | viability, T/C [48] 86.4%
> 10000 nM: IC50 (second compound 0.0316 µM) | IC50 (second compound 0.1 µM) | IC50 (second compound 0.316 µM) | IC50 (second compound 1 µM) | IC50 (second compound 3.16 µM) | IC50 (second compound 10 µM)

Nc1ccn(C2OC(CO)C(O)C2(F)F)c(=O)n1 (stereo not drawn) + Nc1ccc(C#CCN(C(=O)Cc2ncc(C(F)(F)F)cc2C(F)(F)F)c2ccc(F)cc2)nn1
42 nM: IC50 (second compound 3.16 µM)
< 31.6 nM: IC50 (second compound 0.0316 µM) | IC50 (second compound 0.1 µM) | IC50 (second compound 0.316 µM) | IC50 (second compound 1 µM)
active: viability, T/C [47] 10.6% | viability, T/C [48] 9.44%
71.9 nM: IC50 (second compound 10 µM)
inactive: viability, T/C [3] 15.1% | viability, T/C [4] 10.6% | viability, T/C [5] 11.7% | viability, T/C [6] 13.6% | viability, T/C [37] 12.6% | viability, T/C [38] 9.91% | viability, T/C [9] 19.5% | viability, T/C [10] 11.3% | viability, T/C [11] 11.3% | viability, T/C [12] 11.7% | viability, T/C [39] 12.6% | viability, T/C [40] 11.1% | viability, T/C [15] 24% | viability, T/C [16] 12.2% | viability, T/C [17] 10.3% | viability, T/C [18] 13.1% | viability, T/C [41] 12% | viability, T/C [42] 12% | viability, T/C [21] 36.3% | viability, T/C [22] 11.9% | viability, T/C [23] 10.3% | viability, T/C [24] 9.8% | viability, T/C [43] 10.8% | viability, T/C [44] 12.4% | viability, T/C [27] 61.2% | viability, T/C [28] 15.9% | viability, T/C [29] 10.5% | viability, T/C [30] 10.6% | viability, T/C [45] 9.92% | viability, T/C [46] 10.9% | viability, T/C [33] 96.1% | viability, T/C [34] 31.3% | viability, T/C [35] 12.7% | viability, T/C [36] 9.85%
